One may read the IC50 as the point on the concentration scale where inhibition reaches its midpoint. Low readings indicate higher potency, high ones lower potency.

The source of these data is ChEMBL document CHEMBL3886818, “Pyrazole carboxamides as Janus kinase inhibitors” (2016).

For experiment [1], the target named is Tyrosine-protein kinase JAK1 (Homo sapiens, UniProt P23458). Briefly: Subsequent reagent additions employed an Agilent Bravo.
Experiment [2] deals with Tyrosine-protein kinase JAK2 (Homo sapiens, UniProt O60674).
Sequence of Tyrosine-protein kinase JAK2 (O60674 whole entry): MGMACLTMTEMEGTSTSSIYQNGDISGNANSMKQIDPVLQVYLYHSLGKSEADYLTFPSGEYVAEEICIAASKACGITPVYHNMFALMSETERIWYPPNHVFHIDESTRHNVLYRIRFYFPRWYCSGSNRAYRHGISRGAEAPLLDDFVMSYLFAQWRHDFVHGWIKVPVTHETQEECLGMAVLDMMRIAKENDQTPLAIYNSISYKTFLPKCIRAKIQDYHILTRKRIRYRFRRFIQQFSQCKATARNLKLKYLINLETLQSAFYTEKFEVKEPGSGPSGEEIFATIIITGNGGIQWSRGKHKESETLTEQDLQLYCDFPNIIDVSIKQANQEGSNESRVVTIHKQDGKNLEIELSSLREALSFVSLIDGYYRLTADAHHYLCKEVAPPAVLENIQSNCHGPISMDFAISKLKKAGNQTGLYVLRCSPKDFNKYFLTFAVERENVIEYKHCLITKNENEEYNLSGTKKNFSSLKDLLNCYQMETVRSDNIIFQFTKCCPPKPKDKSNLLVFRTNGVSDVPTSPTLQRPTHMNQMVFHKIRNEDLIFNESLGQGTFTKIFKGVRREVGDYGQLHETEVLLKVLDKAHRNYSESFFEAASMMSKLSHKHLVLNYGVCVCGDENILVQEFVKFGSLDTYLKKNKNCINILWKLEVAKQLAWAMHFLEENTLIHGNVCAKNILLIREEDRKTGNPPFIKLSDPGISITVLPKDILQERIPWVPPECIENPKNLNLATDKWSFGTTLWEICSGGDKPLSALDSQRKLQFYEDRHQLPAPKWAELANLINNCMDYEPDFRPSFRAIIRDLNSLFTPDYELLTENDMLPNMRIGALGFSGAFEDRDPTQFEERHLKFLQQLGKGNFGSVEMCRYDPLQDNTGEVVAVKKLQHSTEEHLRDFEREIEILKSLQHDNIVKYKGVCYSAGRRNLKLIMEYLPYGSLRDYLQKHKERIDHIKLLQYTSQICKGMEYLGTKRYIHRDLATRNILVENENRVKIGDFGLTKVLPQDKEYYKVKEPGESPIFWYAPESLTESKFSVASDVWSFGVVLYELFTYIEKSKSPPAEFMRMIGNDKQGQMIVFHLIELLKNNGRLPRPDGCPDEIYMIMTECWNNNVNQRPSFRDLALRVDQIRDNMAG

Sequence of Tyrosine-protein kinase JAK1 (P23458 whole entry): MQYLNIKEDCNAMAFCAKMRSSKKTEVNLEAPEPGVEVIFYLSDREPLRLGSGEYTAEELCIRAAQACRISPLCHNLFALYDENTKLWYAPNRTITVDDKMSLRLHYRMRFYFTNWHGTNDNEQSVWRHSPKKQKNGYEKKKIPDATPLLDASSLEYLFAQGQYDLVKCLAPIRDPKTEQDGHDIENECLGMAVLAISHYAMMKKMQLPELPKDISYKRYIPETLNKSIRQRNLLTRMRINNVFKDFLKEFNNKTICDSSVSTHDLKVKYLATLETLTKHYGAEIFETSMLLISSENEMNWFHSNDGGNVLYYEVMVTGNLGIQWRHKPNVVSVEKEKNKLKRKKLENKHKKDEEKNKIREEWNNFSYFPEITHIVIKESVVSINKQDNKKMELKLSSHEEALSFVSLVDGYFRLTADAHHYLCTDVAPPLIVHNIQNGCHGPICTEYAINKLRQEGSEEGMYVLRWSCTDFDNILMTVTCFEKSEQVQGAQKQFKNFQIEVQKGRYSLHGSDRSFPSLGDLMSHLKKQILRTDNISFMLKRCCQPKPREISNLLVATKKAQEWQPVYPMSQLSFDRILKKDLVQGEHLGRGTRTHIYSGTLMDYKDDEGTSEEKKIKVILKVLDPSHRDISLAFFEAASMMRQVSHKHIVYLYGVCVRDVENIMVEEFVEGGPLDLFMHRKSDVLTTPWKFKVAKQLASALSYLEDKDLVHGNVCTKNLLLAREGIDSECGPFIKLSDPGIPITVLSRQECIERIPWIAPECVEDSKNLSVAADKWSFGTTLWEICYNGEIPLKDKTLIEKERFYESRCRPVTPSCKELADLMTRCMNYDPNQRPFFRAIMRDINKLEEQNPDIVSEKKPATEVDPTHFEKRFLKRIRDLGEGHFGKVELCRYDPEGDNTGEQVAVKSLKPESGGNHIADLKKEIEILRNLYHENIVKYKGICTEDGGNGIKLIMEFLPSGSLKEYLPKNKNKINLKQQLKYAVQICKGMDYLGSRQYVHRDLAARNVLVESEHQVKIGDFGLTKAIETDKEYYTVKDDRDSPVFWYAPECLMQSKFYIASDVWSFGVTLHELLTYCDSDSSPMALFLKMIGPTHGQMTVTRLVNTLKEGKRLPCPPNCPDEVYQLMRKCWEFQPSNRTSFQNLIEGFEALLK

Turning to `N#C[C@H]1CCOC[C@@H]1n1cc(C(N)=O)c(Nc2ccc(OC(F)(F)F)cc2)n1` (single isomer, unassigned), the IC50 is 0.2 nM in experiment [1] and 1 nM in experiment [2].
